Measured values taken from US8865734B2 (priority 2010, dated 2014).
Converted amounts (≈) assume the structure as drawn.

Tests used:
[1] = test system: M. tuberculosis inside the host macrophage; assay: QIM: Quantification of Intracellular Mycobacteria (intracellular growth assay, phenotypic cell-based); conditions: Mycobacterium tuberculosis; MIC, 80% bacterial growth inhibition; intracellular growth; read-out: QIM
Text: Accordingly, a phenotypic cell-based assay, suitable for high throughput screening, which allows for the search of compounds that would prevent M. tuberculosis multiplication inside the host macrophage was utilized (WO2010003533A2), overcoming many of the numerous and burdensome steps involved in previous methodologies (Arain et al., 1996).
(§1) A 120,000 small molecule compound library was screened using a validated phenotypic cell-based assay (WO2010003533A2). Active compounds from the primary screen were confirmed via dose response in the intracellular (QIM) assay and an in vitro (QUM) assay, wherein the abbreviation “QIM” stands for Quantification of Intracellular Mycobacteria and the abbreviation “QUM” stands for Quantification of in vitro grown Mycobacteria. […] The MIC is the minimum concentration of compound required to obtain 80% bacterial growth inhibition.
(§2) The imidazopyridine compounds (scaffolds Ia and Ib; see Table 1) underwent derivatization according to the methods outlined below (Schemes 1-13). Resulting derivatives were examined for inhibitory activity (MIC) using the assays described above (Example 1) and the results are summarized in Table 1.

[2] = test system: in vitro grown Mycobacteria (M. tuberculosis); assay: QUM: Quantification of in vitro grown Mycobacteria (in vitro growth fluorescence assay); type: cell-based; conditions: MIC, 80% bacterial growth inhibition, in vitro growth; for MIC: Mycobacterium tuberculosis, read-out: QUM
Text: as §1, §2

Row | Compound | MIC [1] [µM] | MIC [2] [µM] | QUM (μM) [2]
1 | CCc1nc2ccccn2c1C(=O)NCc1ccc(Oc2ccc(OC(F)(F)F)cc2)cc1 [Compound 192, 2-Ethyl-N-(4-(4-(trifluoromethoxy)phenoxy)benzyl)imidazo[1,2-a]pyridine-3-carboxamide] | < 1 | < 1 | –
2 | CCc1nc2ccc(C)cn2c1C(=O)NCc1ccc2c(ccn2C)c1 [Compound 66, 2-Ethyl-6-methyl-N-((1-methyl-1H-indol-5-yl)methyl)imidazo[1,2-a]pyridine-3-carboxamide] | < 1 | < 1 | –
3 | CCc1nc2cc(Cl)ccn2c1C(=O)NCc1ccc(-c2ccc(OC)cc2)cc1 [Compound 118, 7-Chloro-2-ethyl-N-((4′-methoxybiphenyl-4-yl)methyl)imidazo[1,2-a]pyridine-3-carboxamide] | < 1 | < 1 | –
4 | Cc1nc2ccccn2c1C(=O)NCc1cccnc1 [Compound 13, 2-Methyl-N-(pyridin-3-ylmethyl)imidazo[1,2-a]pyridine-3-carboxamide] | > 20 | > 20 | –
5 | Cc1nc2ccccn2c1C(=O)NCc1ccc(F)cc1 [Compound 9, N-(4-Fluorobenzyl)-2-methylimidazo[1,2-a]pyridine-3-carboxamide] | > 20 | > 20 | –
6 | Cc1ccc2nc(C)c(C(=O)NCc3ccccc3)n2c1 [Compound 32, N-Benzyl-2,6-dimethylimidazo[1,2-a]pyridine-3-carboxamide] | < 1 | < 1 | –
7 | CCc1nc2ccc(Cl)cn2c1C(=O)NCc1ccc(OCC(C)C)cc1 [Compound 76] | < 1 | < 1 | –
8 | CCc1nc2cc(Cl)ccn2c1C(=O)NCc1ccc(-n2cccc2)cc1 [Compound 138, N-(4-(1H-Pyrrol-1-yl)benzyl)-7-chloro-2-ethylimidazo[1,2-a]pyridine-3-carboxamide] | < 1 | < 1 | –
9 | CCCC(=O)NCc1ccc(N2CCN(c3ccc(CNC(=O)c4c(CC)nc5cc(Cl)ccn45)cc3)CC2)cc1 [Compound 144, N-(4-(4-(4-(Butyramidomethyl)phenyl)piperazin-1-yl)benzyl)-7-chloro-2-ethylimidazo-[1,2-a]pyridine-3-carboxamide] | < 1 | < 1 | –
10 | CCc1nc2ccc(Cl)cn2c1C(=O)NCc1ccc(-c2ccccc2C)cc1 [Compound 84, 6-Chloro-2-ethyl-N-((2′-methylbiphenyl-4-yl)methyl)imidazo[1,2-a]pyridine-3-carboxamide] | < 1 | < 1 | –
11 | CCc1nc2cc(Cl)ccn2c1C(=O)NCc1ccc(N2CCC(=O)CC2)cc1 [Compound 269, 7-Chloro-2-ethyl-N-(4-(4-oxopiperidin-1-yl)benzyl)imidazo[1,2-a]pyridine-3-carboxamide] | 1 to 20 (≈ 0.411 to 8.22 µg/mL) | < 1 | –
12 | CCc1nc2ccc(Cl)cn2c1C(=O)NCc1ccn(-c2ccc(F)cc2)n1 [Compound 235, 6-Chloro-2-ethyl-N-((1-(4-fluorophenyl)-1H-pyrazol-3-yl)methyl)imidazo[1,2-a]pyridine-3-carboxamide] | 1 to 20 (≈ 0.398 to 7.96 µg/mL) | 1 to 20 (≈ 0.398 to 7.96 µg/mL) | –
13 | CCc1nc2ccc(Cl)cn2c1C(=O)NCc1ccc(N2CCC(Oc3ccc(F)cc3)CC2)cc1 [Compound 166, 6-Chloro-2-ethyl-N-(4-(4-(4-fluorophenoxy)piperidin-1-yl)benzyl)imidazo[1,2-a]pyridine-3-carboxamide] | < 1 | < 1 | –
14 | CCc1nc2cc(Cl)c(Cl)cn2c1C(=O)NCc1ccc(OC(F)(F)F)cc1 [Compound 153, 6,7-Dichloro-2-ethyl-N-(4-(trifluoromethoxy)benzyl)imidazo[1,2-a]pyridine-3-carboxamide] | > 20 | 1 to 20 (≈ 0.432 to 8.64 µg/mL) | –
15 | CCc1nc2ccccn2c1C(=O)NCc1ccc(OC(C)C)cc1 [Compound 60, 2-Ethyl-N-(4-isopropoxybenzyl)imidazo[1,2-a]pyridine-3-carboxamide] | < 1 | < 1 | –
16 | CCc1nc2cc(Cl)ccn2c1C(=O)NCc1ccc(-c2ccc(OC(F)(F)F)cc2)cc1 [Compound 119, 7-Chloro-2-ethyl-N-((4′-(trifluoromethoxy)biphenyl-4-yl)methyl)imidazo[1,2-a]pyridine-3-carboxamide] | < 1 | < 1 | –
17 | CCc1nc2ccc(C)cn2c1C(=O)NCc1ccc2ccn(C)c2c1 [Compound 67, 2-Ethyl-6-methyl-N-((1-methyl-1H-indol-6-yl)methyl)imidazo[1,2-a]pyridine-3-carboxamide] | < 1 | < 1 | –
18 | Cc1nc2c(C)cccn2c1C(=O)NCc1ccccc1 [Compound 30, N-Benzyl-2,8-dimethylimidazo[1,2-a]pyridine-3-carboxamide] | > 20 | > 20 | –

Row | Compound | MIC [1] [µM] | MIC [2] [µM] | QUM (μM) [2]
19 | CCc1nc2ccc(Cl)cn2c1C(=O)NCc1ccc2ccccc2c1 [Compound 80, 6-Chloro-2-ethyl-N-(naphthalen-2-ylmethyl)imidazo[1,2-a]pyridine-3-carboxamide] | < 1 | < 1 | –
20 | Cc1nc2ccccn2c1C(=O)NCc1ccc2[nH]ccc2c1 [Compound 17, N-((1H-Indol-5-yl)methyl)-2-methylimidazo[1,2-a]pyridine-3-carboxamide] | 1 to 20 (≈ 0.304 to 6.09 µg/mL) | 1 to 20 (≈ 0.304 to 6.09 µg/mL) | –
21 | CCCc1nc2ccccn2c1C(=O)NCc1ccccc1 [Compound 48, N-Benzyl-2-propylimidazo[1,2-a]pyridine-3-carboxamide] | > 20 | 1 to 20 (≈ 0.293 to 5.87 µg/mL) | –
22 | CCc1nc2cc(Cl)ccn2c1C(=O)NCc1ccc(N2CCC(Oc3ccc(C(F)(F)F)cc3)CC2)cc1 [Compound 165, 7-Chloro-2-ethyl-N-(4-(4-(4-(trifluoromethyl)phenoxy)piperidin-1-yl)benzyl) imidazo[1,2-a]pyridine-3-carboxamide] | < 1 | < 1 | –
23 | CCc1nc2ccc(OC)cn2c1C(=O)NCc1ccc(N2CCOCC2)cc1 [Compound 313] | – | < 1 | –
24 | CCc1nc2cc(Cl)ccn2c1C(=O)NCc1ccc(N2CC3CCCCC3C2)cc1 (stereo not shown) [Compound 224, N-(4-(1H-isoindol-2(3H,3aH,4H,5H,6H,7H,7aH)-yl)benzyl)-7-chloro-2-ethylimidazo[1,2-a]pyridine-3-carboxamide] | – | < 1 | –
25 | 6-Chloro-N-(4-(4-(cyclopentyloxymethyl)piperidin-1-yl)benzyl)-2-ethylimidazo[1,2-a]pyridine-3-carboxamide [Compound 293] | – | – | +++ (+++ indicates <1 uM)
26 | CCc1nc2c(-c3ccncc3)cccn2c1C(=O)NCc1ccc(N2CCOCC2)cc1 [Compound 327, 2-Ethyl-N-(4-morpholinobenzyl)-8-(pyridin-4-yl)imidazo[1,2-a]pyridine-3-carboxamide] | – | > 20 | –
27 | CCc1nc2cc(OC)ccn2c1C(=O)NCc1ccc(N2CCN(c3ccc(F)cc3)CC2)cc1 [Compound 114, 2-Ethyl-N-(4-(4-(4-fluorophenyl)piperazin-1-yl)benzyl)-7-methoxyimidazo[1,2-a]pyridine-3-carboxamide] | – | < 1 | –
28 | CCc1nc2ccc(C)cn2c1C(=O)NCc1ccc(Oc2ccc(OC(F)(F)F)cc2)cc1 [Compound 255, 2-Ethyl-6-methyl-N-(4-(4-(trifluoromethoxy)phenoxy)benzyl)imidazo[1,2-a]pyridine-3-carboxamide] | – | < 1 | –
29 | CCc1nc2cc(Cl)ccn2c1C(=O)NCc1ccc(N2CCC(C(=O)N(C)C)CC2)cc1 [Compound 346, 7-Chloro-N-(4-(4-(dimethylcarbamoyl)piperidin-1-yl)benzyl)-2-ethylimidazo[1,2-a]pyridine-3-carboxamide] | – | < 1 | –
30 | CCc1nc2c(-c3ccncc3)cccn2c1C(=O)NCc1ccc(N2CCN(c3ccc(F)cc3)CC2)cc1 [Compound 312, 2-Ethyl-N-(4-(4-(4-fluorophenyl)piperazin-1-yl)benzyl)-8-(pyridin-4-yl)imidazo[1,2-a]pyridine-3-carboxamide] | – | < 1 | –
31 | CCc1nc2ccc(Cl)cn2c1C(=O)NCc1ccc(C(=O)NCc2ccc(C(=O)N3CCOCC3)cc2)cc1 [Compound 332, 6-Chloro-2-ethyl-N-(4-((4-(morpholine-4-carbonyl)benzyl)carbamoyl)benzyl) imidazo[1,2-a]pyridine-3-carboxamide] | – | > 20 | –
32 | CCc1nc2ccccn2c1C(=O)NCc1ccc2oc(-c3ccc(F)cc3)nc2c1 [Compound 334, 2-Ethyl-N-((2-(4-fluorophenyl)benzo[d]oxazol-5-yl)methyl)imidazo[1,2-a]pyridine-3-carboxamide] | – | < 1 | –
33 | CCc1nc2cc(Cl)ccn2c1C(=O)NCc1ccc(C(=O)N2CCOCC2)cc1 [Compound 333, 7-Chloro-2-ethyl-N-(4-(morpholine-4-carbonyl)benzyl)imidazo[1,2-a]pyridine-3-carboxamide] | – | > 20 | –
34 | CCc1nc2cc(Cl)ccn2c1C(=O)NCc1ccc(N2CCC(c3ccc(OC(F)(F)F)cc3)CC2)cc1 [Compound 290, 7-Chloro-2-ethyl-N-(4-(4-(4-(trifluoromethoxy)phenyl)piperidin-1-yl)benzyl)imidazo[1,2-a]pyridine-3-carboxamide] | – | < 1 | –
35 | CCc1nc2cc(Cl)ccn2c1C(=O)NCc1ccc(N2CCOCC2)c(Cl)c1 [Compound 350, 7-Chloro-N-(3-chloro-4-morpholinobenzyl)-2-ethylimidazo[1,2-a]pyridine-3-carboxamide] | – | < 1 | –
36 | CCc1nc2c(OC)cccn2c1C(=O)NCc1ccc(N2CCN(c3ccc(F)cc3)CC2)cc1 [Compound 115, 2-Ethyl-N-(4-(4-(4-fluorophenyl)piperazin-1-yl)benzyl)-8-methoxyimidazo[1,2-a]pyridine-3-carboxamide] | – | < 1 | –
